Data: patent publication US20260209196A1, “AMIDINOUREA DERIVATIVES AND THEIR USE IN THE TREATMENT OF CANCER” (UNIVERSITE COTE D'AZUR, priority 2022, published 2026)
Read-outs that look alike come from different tables or passages of the source.

Assays:
[1] = system: A375; test: Cell viability of A375 melanoma cells by Trypan Blue exclusion; assay type: cell-based; details: Homo sapiens, A-375, viable cells as mean percentage of control cells ± SEM, N=3
Method: The BRAFV600E mutant melanoma line A375 (CRL-1619) was purchased from ATCC (Manassas, VA, USA). The A375 were maintained in glutamine-containing DMEM supplemented with 10% heat-inactivated fetal bovine serum, penicillin (100 units/ml) and streptomycin ([…]).
Cell viability was measured by the Trypan Blue exclusion method. Briefly, cells washed with PBS were harvested by a 3-minute incubation in 0.05% trypsin before neutralization with serum containing medium. An aliquot of the cell suspension was then mixed 1:1 with a 0.4% Trypan blue solution and viable cells were counted within 5 minutes on Kova slides under an optical microscope. Results are expressed as the mean percentage of control cells±SEM. N=3

[2] = system: NCI 60 cell panel; test: DTP-NCI assay (NCI 60 cell screen, single high dose); assay type: cell-based; details: Homo sapiens, 48 h; single high dose 10^-5 M, full NCI 60 cell panel; growth relative to no-drug control and to time zero number of cells; read-out: DTP-NCI (mean of the percent growth of treated cells)
Method: The effect of 10 μM of MTF504 was monitored on a panel 60 cell lines representing nine distinct tumour types: leukemia, colon, lung, central nervous system, renal, melanoma, ovarian, breast and prostate. Briefly, the compound was sent to the US National Cancer Institute where its antineoplastic effects were monitored on the panel of cell lines after 48 hours of treatment following a standardized protocol.
All compounds submitted to the NCI 60 Cell screen are tested initially at a single high dose (10^-5 M) in the full NCI 60 cell panel. The results are reported as a mean of the percent growth of treated cells. The number reported is growth relative to the no-drug control, and relative to the time zero number of cells. This allows detection of […].

[3] = 24 h, read-out: Viab A375 5 μM/24 h
[4] = 48 h, read-out: Viab A375 5 μM/48 h
[5] = 24 h, read-out: Viab A375 10 μM/24 h
[6] = 48 h, read-out: Viab A375 10 μM/48 h

| SMILES | viability at 5 µM [1, 3] [%] | viability at 5 µM [1, 4] [%] | activity at 10 µM [2] [%] | viability at 10 µM [1, 5] [%] | viability at 10 µM [1, 6] [%] |
| --- | --- | --- | --- | --- | --- |
| Cc1ccccc1NC(O)NC(=N)Nc1nc(-c2cccc([N+](=O)[O-])c2)cs1 (centres unmarked) [MTF515, N-4-(3-nitrophenyl) thiazol-2-yl-N″-(2-methylaniline-carbonyl)-guanidine] | 64.9 | 28.7 | 37.7 |  |  |
| N=C(NC(=O)Nc1ccccc1)Nc1nc2ccccc2s1 [MTF314, N—(N-(benzo[d]thiazol-2-yl)carbamimidoyl)-anilinocarboxamide] | 53.5 | 12.3 | 37.4 | 32.7 | 7.6 |
| Cc1ccc(Cl)cc1NC(=O)NC(=N)Nc1nc2ccccc2s1 [MTF656, N-benzo[d]thiazol-2-yl-N″-(2-methyl-5-chloroaniline-carbonyl)-guanidine] |  |  | -19.4 |  |  |
| COc1ccccc1NC(=O)NC(=N)Nc1nc2ccccc2s1 [MTF419, N-benzo[d]thiazol-2-yl-N″-(2-methoxyaniline-carbonyl)-guanidine] | 62.6 | 18.8 | 26.7 | 56.8 | 21.8 |
| N=C(NC(=O)NC1CC1)Nc1nc2ccccc2s1 [MTF214, N—(N-(benzo[d]thiazol-2-yl)carbamimidoyl)cyclopropylamine-1-carboxamide] | 98.2 | 76.6 |  | 51.5 | 87.7 |
| Cc1nc(NC(=N)NC(=O)Nc2cccc(Cl)c2)sc1C [MTF506, 4,5-dimethylthiazol-2-yl-N″-(3-chloroaniline-carbonyl)-guanidine] | 64.3 | 54.5 | 67.7 |  |  |
| N=C(NC(=O)Nc1ccccc1F)Nc1nc2ccccc2s1 [MTF654, N-benzo[d]thiazol-2-yl-N″-(2-fluoroaniline-carbonyl)-guanidine] |  |  | 20.3 |  |  |
| Cc1nc(NC(=N)NC(=O)Nc2cccc([N+](=O)[O-])c2)sc1C [MTF512, 4,5-dimethylthiazol-2-yl-N″-(3-nitroaniline-carbonyl)-guanidine] | 87 | 54.3 |  |  |  |
| N=C(NC(=O)Nc1ccc(Cl)cc1Cl)Nc1nc2ccccc2s1 [MTF649, N-benzo[d]thiazol-2-yl-N″-(2,4-dichloroaniline-carbonyl)-guanidine] |  |  | -58.2 |  |  |
| Cc1ccccc1NC(=O)NC(=N)Nc1nc(C)c(C)s1 [MTF509, 4,5-dimethylthiazol-2-yl-N″-(2-methylaniline-carbonyl)-guanidine] | 23 | 13.6 | 29.3 |  |  |
| CCc1ccccc1NC(=O)NC(=N)Nc1nc2ccccc2s1 [MTF653, N-benzo[d]thiazol-2-yl-N″-(2-ethylaniline-carbonyl)-guanidine] |  |  | 0.27 |  |  |
| COc1ccccc1NC(=O)NC(=N)Nc1nc(-c2ccccc2)cs1 [MTF433, N-4-phenylthiazol-2-yl-N″-(2-methoxyaniline-carbonyl)-guanidine] | 109 | 43.9 |  |  |  |
| COc1cccc(NC(=O)NC(=N)Nc2nc(C)c(C)s2)c1 [MTF511, 4,5-dimethylthiazol-2-yl-N″-(3-methoxyaniline-carbonyl)-guanidine] | 92.1 | 82.8 |  |  |  |
| N=C(NC(=O)Nc1ccc(Cl)cc1)Nc1nc(-c2cccc([N+](=O)[O-])c2)cs1 [MTF428, N-4-(3-nitrophenyl) thiazol-2-yl-N″-(4-chloroaniline-carbonyl)-guanidine] | 128 | 50.2 |  |  |  |
| N=C(NC(=O)Nc1ccc(Br)cc1)Nc1nc(-c2cccc([N+](=O)[O-])c2)cs1 [MTF427, N-4-(3-nitrophenyl) thiazol-2-yl-N″-(4-bromoaniline-carbonyl)-guanidine] | 94.2 | 34.4 | 72.5 |  |  |
| Cc1nc(NC(=N)NC(=O)Nc2ccc(Br)cc2)sc1C [MTF429, 4,5-dimethylthiazol-2-yl-N″-(4-bromoaniline-carbonyl)-guanidine] | 94.2 | 39.1 |  |  |  |
| N=C(NC(=O)Nc1c(Cl)cccc1Cl)Nc1nc2ccccc2s1 [MTF650, N-benzo[d]thiazol-2-yl-N″-(2,6-dichloroaniline-carbonyl)-guanidine] |  |  | 36.4 |  |  |

| SMILES | viability at 5 µM [1, 3] [%] | viability at 5 µM [1, 4] [%] | activity at 10 µM [2] [%] | viability at 10 µM [1, 5] [%] | viability at 10 µM [1, 6] [%] |
| --- | --- | --- | --- | --- | --- |
| N=C(NC(=O)Nc1cccc(Cl)c1)Nc1nc2ccccc2s1 [MTF415, N-benzo[d]thiazol-2-yl-N″-(3-chloroaniline-carbonyl)-guanidine] | 93.5 | 32.9 | 35.4 | 58.3 | 19.9 |
| N=C(NC(=O)Nc1cccc2ccccc12)Nc1nc2ccccc2s1 [MTF418, N-benzo[d]thiazol-2-yl-N″-(naphtalen-1-amine-carbonyl)-guanidine] | 16.5 | 16.7 | 26.1 | 41 | 4.6 |
| Cc1nc(NC(=N)NC(=O)Nc2ccccc2Cl)sc1C [MTF505, 4,5-dimethylthiazol-2-yl-N″-(2-chloroaniline-carbonyl)-guanidine] | 31.1 | 10 | 33 |  |  |
| COc1cccc(NC(=O)NC(=N)Nc2nc(-c3cccc([N+](=O)[O-])c3)cs2)c1 [MTF432, N-4-(3-nitrophenyl) thiazol-2-yl-N″-(3-methoxyaniline-carbonyl)-guanidine] | 115 | 29.8 | 74.8 |  |  |
| CCOc1ccccc1NC(=O)NC(=N)Nc1nc2ccccc2s1 [MTF652, N-benzo[d]thiazol-2-yl-N″-(2-ethoxyaniline-carbonyl)-guanidine] |  |  | 12.6 |  |  |
| Cc1cccc(NC(=O)NC(=N)Nc2nc(-c3cccc([N+](=O)[O-])c3)cs2)c1 [MTF431, N-4-(3-nitrophenyl) thiazol-2-yl-N″-(3-methylaniline-carbonyl)-guanidine] | 95.4 | 41.6 |  |  |  |
| N=C(NC(=O)Nc1ccccc1Cl)Nc1nc2ccc([N+](=O)[O-])cc2s1 [MTF657, N-6-nitrobenzo[d]thiazol-2-yl-N″-(2-chloroaniline-carbonyl)-guanidine] |  |  | 31.2 |  |  |
| N=C(NC(=O)Nc1cccc2ccccc12)Nc1nc(-c2ccccc2)cs1 [MTF435, N-4-phenylthiazol-2-yl-N″-(naphtalen-1-amine-carbonyl)-guanidine] | 81 | 84.6 |  |  |  |
| N=C(NC(=O)Nc1ccccc1Br)Nc1nc2ccccc2s1 [MTF651, N-benzo[d]thiazol-2-yl-N″-(2-bromoaniline-carbonyl)-guanidine] |  |  | -17.8 |  |  |
| Cc1ccccc1NC(=O)NC(=N)Nc1nc2ccccc2s1 [MTF495, N-benzo[d]thiazol-2-yl-N″-(2-methylaniline-carbonyl)-guanidine] | 38.6 | 8 | 25.9 |  |  |
| N=C(NC(=O)Nc1ccc(Cl)cc1)Nc1nc(-c2ccccc2)cs1 [MTF426, N-4-phenylthiazol-2-yl-N″-(4-chloroaniline-carbonyl)-guanidine] | 109 | 46.4 |  |  |  |
| Cc1cccc(NC(=O)NC(=N)Nc2nc(C)c(C)s2)c1 [MTF510, 4,5-dimethylthiazol-2-yl-N″-(3-methylaniline-carbonyl)-guanidine] | 56.5 | 26.1 | 47.2 |  |  |
| COc1ccccc1NC(=O)NC(=N)Nc1nc(-c2cccc([N+](=O)[O-])c2)cs1 [MTF434, N-4-(3-nitrophenyl) thiazol-2-yl-N″-(2-methoxyaniline-carbonyl)-guanidine] | 63.8 | 50.7 |  |  |  |
| Cc1nc(NC(=N)NC(=O)Nc2ccccc2)sc1C [MTF496, 4,5-dimethylthiazol-2-yl-N″-(aniline-carbonyl)-guanidine] | 67.7 | 56.6 | 83.8 |  |  |
| N=C(NC(=O)Nc1cccc2ccccc12)Nc1nc(-c2cccc([N+](=O)[O-])c2)cs1 [MTF430, N-4-(3-nitrophenyl) thiazol-2-yl-N″-(naphtalen-1-amine-carbonyl)-guanidine] | 75.8 | 25.3 | 89.2 |  |  |
| Cc1nc(NC(=N)NC(=O)Nc2ccc(Cl)cc2)sc1C [MTF507, 4,5-dimethylthiazol-2-yl-N″-(4-chloroaniline-carbonyl)-guanidine] | 98.9 | 139 |  |  |  |
| N=C(NC(=O)Nc1ccccc1[N+](=O)[O-])Nc1nc2ccccc2s1 [MTF655, N-benzo[d]thiazol-2-yl-N″-(2-nitroaniline-carbonyl)-guanidine] |  |  | 11.6 |  |  |
